Source: patent US20020156269A1, “Crystals of diuridine tetraphosphate or salt thereof, process for producing the crystals, and process for producing the compounds” (YAMASA CORPORATION, priority 1998, published 2002)

What was measured:
[1] = Hygroscopicity: standing for nine days at controlled temperature and relative humidity; type: physicochemical; conditions: for decomposition or change in weight on standing: initial water content approximately 14%
Method: U2P4.4Na crystals (octahydrate) having a water content of approximately 14% were allowed to stand for nine days under the following conditions: a) 25° C. and a relative humidity of 57%; b) 25° C. and a relative humidity of 75%; and c) 40° C. and a relative humidity of 75%. […] The crystals have proven to be stable and to have no hygroscopicity. U2P4.4Na crystals (tetrahydrate) having a water content of approximately 8% were allowed to stand for nine days under conditions of 40° C. and a relative humidity of 75%. In this case, the water content increased to 14-15%.

[2] = Stability: acceleration test in sealed bottles at 60° C. for 13 days; type: physicochemical; conditions: sealed bottle, 13 days at 60° C.
Method: U2P4.4Na crystals (octahydrate) and a lyophilized product were placed in respective bottles, which were then sealed and allowed to stand for 13 days at 60° C. (acceleration test).

O=c1ccn([C@@H]2O[C@H](COP(=O)([O-])OP(=O)([O-])OP(=O)([O-])OP(=O)([O-])OC[C@H]3O[C@@H](n4ccc(=O)[nH]c4=O)C(O)C3O)C(O)C2O)c(=O)[nH]1.[Na+].[Na+].[Na+].[Na+] (stereo partly drawn) [U2P4.4Na crystals (octahydrate), P^1,P^4-di(uridine 5′-)tetraphosphate tetrasodium salt]
decomposition or change in weight on standing ([1]; nine days, 25° C. and a relative humidity of 57%): No decomposition or change in weight
decomposition or change in weight on standing ([1]; nine days, 25° C. and a relative humidity of 75%): No decomposition or change in weight
decomposition or change in weight on standing ([1]; nine days, 40° C. and a relative humidity of 75%): No decomposition or change in weight
decomposition [2]: No decomposition

O=c1ccn([C@@H]2O[C@H](COP(=O)([O-])OP(=O)([O-])OP(=O)([O-])OP(=O)([O-])OC[C@H]3O[C@@H](n4ccc(=O)[nH]c4=O)C(O)C3O)C(O)C2O)c(=O)[nH]1.[Na+].[Na+].[Na+].[Na+] (stereo partly drawn) [U2P4.4Na crystals (tetrahydrate), P^1,P^4-di(uridine 5′-)tetraphosphate tetrasodium salt]
water content after standing ([1]; nine days, 40° C. and a relative humidity of 75%, initial water content approximately 8% (tetrahydrate)): 14-15%

O=c1ccn([C@@H]2O[C@H](COP(=O)([O-])OP(=O)([O-])OP(=O)([O-])OP(=O)([O-])OC[C@H]3O[C@@H](n4ccc(=O)[nH]c4=O)C(O)C3O)C(O)C2O)c(=O)[nH]1.[Na+].[Na+].[Na+].[Na+] (stereo partly drawn) [lyophilized product, P^1,P^4-di(uridine 5′-)tetraphosphate tetrasodium salt, reference compound]
state of the product on storage ([1]; 40° C. and a relative humidity of 75%, on the seventh day of storage): mud-like state due to deliquescence
change of water content on standing ([1]; nine days, 40° C. and a relative humidity of 75%, initial water content approximately 1%): increased gradually
decomposition [2]: partial decomposition
weight loss of U2P4.4Na [2]: approximately 1.4%
